We go through four molecules from US6638981B2, “Topical compositions and methods for treating pain” (EpiCept Corporation, priority 2001, dated 2003).

A short description of the series: Chemical and physical stability studies under ICH storage conditions (extraction, HPLC, appearance). Type of series: physicochemical. As to conditions: in Composition A; for calculated initial percentage of actives: before storage, HPLC; for calc. percentage of actives after storage for one month, 25° C. / calc. percentage of actives after storage for two months, 25° C.: 25° C./60% RH; for calc. percentage of actives after storage for one month, 30° C. / calc. percentage of actives after storage for two months, 30° C.: 30° C./60% RH; for calc. percentage of actives after storage for one month, 40° C. / calc. percentage of actives after storage for two months, 40° C.: 40° C./75% RH.

Counter-ions that a name gives are not always drawn.

For `CN(C)CCC=C1c2ccccc2CCc2ccccc21` [Amitriptyline Hydrochloride, Amitriptyline hydrochloride], the “calculated initial percentage of actives” value is 102.5%; the “calc. percentage of actives after storage for one month, 25° C.” value (from here on “calc. percentage … for one month, 25° C.”) is 103%; the “calc. percentage of actives after storage for two months, 25° C.” value (shortened to “calc. percentage … for two months, 25° C.”) is 101%; the “calc. percentage of actives after storage for one month, 30° C.” value (“calc. percentage … for one month, 30° C.” for short) was 102%. In addition, the “calc. percentage of actives after storage for two months, 30° C.” value (shortened to “calc. percentage … for two months, 30° C.”) is 102%; the “calc. percentage of actives after storage for one month, 40° C.” value (“calc. percentage … for one month, 40° C.” for short) is 103%; the “calc. percentage of actives after storage for two months, 40° C.” value (shortened to “calc. percentage … for two months, 40° C.”) was 102%.
Consider `CNC1(c2ccccc2Cl)CCCCC1=O` (stereo not shown) [Ketamine Hydrochloride, Ketamine hydrochloride], for which the “calculated initial percentage of actives” value is listed as 100.4%; the “calc. percentage … for one month, 25° C.” value is 103%; the “calc. percentage … for two months, 25° C.” value is listed as 100%; the “calc. percentage … for one month, 30° C.” value is 102%. Also, the “calc. percentage … for two months, 30° C.” value is listed as 100%; the “calc. percentage … for one month, 40° C.” value is given as 103%; the “calc. percentage … for two months, 40° C.” value was 102%.
As for `COC(=O)c1ccc(O)cc1` [Methylparaben], the “calculated initial percentage of actives” value is recorded as 104.4%; the “calc. percentage … for one month, 25° C.” value is 103%; the “calc. percentage … for two months, 25° C.” value is reported as 101%; the “calc. percentage … for one month, 30° C.” value was 102%. For the same molecule, the “calc. percentage … for two months, 30° C.” value was 102%; the “calc. percentage … for one month, 40° C.” value was 102%; the “calc. percentage … for two months, 40° C.” value is reported as 102%.
On to `CCCOC(=O)c1ccc(O)cc1` [Propylparaben], for which the “calculated initial percentage of actives” value is recorded as 101.8%; the “calc. percentage … for one month, 25° C.” value is given as 102%; the “calc. percentage … for two months, 25° C.” value is reported as 102%; the “calc. percentage … for one month, 30° C.” value is given as 102%. Moreover, the “calc. percentage … for two months, 30° C.” value is given as 103%; the “calc. percentage … for one month, 40° C.” value is 102%; the “calc. percentage … for two months, 40° C.” value is on record as 103%.
